Experimental findings from a melting point compilation (Tetko et al.; mined from patent text by program, amines drawn as free bases though some values may be those of a salt) are described below.

Where only a bound is given, the exact number is not on record here.

In the case of `COC(=O)C1=C(C)NC(=S)N(S(C)(=O)=O)C1c1cccc([N+](=O)[O-])c1` (stereo unspecified), the melting point lay within 188 to 190 °C.
As for `COc1ccc(Cn2ncc(N3CCOCC3)c(C=NO)c2=O)cc1`, the figure is 166 to 168 °C; as for `CC(=O)C(C)Oc1cc(-n2c(=O)cc(C(F)(F)F)n(C)c2=O)c(F)cc1Br` (stereo unspecified), 119 °C.
`COC(=O)C1C(C)=NC(N2CCCC2)=C(C(=O)OC(C)C)C1c1cccc([N+](=O)[O-])c1` (stereo unspecified): the melting point was 140 °C.
For `O=C(O)CCCOc1ccc(CNC(=O)C2Cc3ccccc3N2S(=O)(=O)c2ccc(-c3cccc(C(F)(F)F)c3)cc2)cc1` (stereo unspecified) the value was 78 to 80 °C; for `Cc1nc(NC(=O)c2cnn3c(C(F)(F)F)cc(-c4ccc(C(F)(F)F)cc4)nc23)sc1S(=O)(=O)N(CCO)CCO`, 214 °C.
Consider `CN1CCC(O)c2cccc(CSc3nc4ccccc4[nH]3)c21` (stereo unspecified), for which the melting point lay within 144 to 145 °C.
For `Cc1nc(C)c(Cl)c(NCc2nccc(SCCCCSCc3ccncc3)c2C)n1` the value was 104 to 106 °C.
For `O=S1(=O)N=CN(C2CC2)c2cc(F)cc(Br)c21`, the melting point fell in the range of 270 to 273 °C.
For `Cc1nc2c(O[C@@H]3c4ccccc4C[C@H]3O)cc(C(=O)N(C)C)cn2c1C` (relative stereo) the value was 122 °C.
For `CCNC(=O)N(NC(=O)c1cccc(Cl)c1)C(C)(C)C` the value was 67 to 68 °C; for `CC(C)Cn1nc(-c2ccc(F)c(F)c2)cc(COS(C)(=O)=O)c1=O`, 113 °C.
As for `CNC(=O)Nc1snc(S(C)(=O)=O)c1C#N`, the figure is 275 °C.
With `CCc1cc(C(=O)O)ccc1O`, the melting point fell in the range of 134 to 136 °C.
For `Cc1nc(-n2ccc(O)cc2=O)sc1C(=O)NCc1ccccc1` the value was 240 to 243 °C; for `O=C1CNC(=O)N1CCNCc1ccc(CN2CCCCC2)o1`, 133 to 136 °C.
As for `CCCc1nc2c(N)nc3cccnc3c2n1CC1(O)CCCC1`, the figure is 184 to 186 °C.
For `Cn1nc(-c2ccc(Cl)cc2Cl)cc1O` the value was 128 °C; for `CCCNC(=O)C(C)(C)Cc1ccc2c(c1)c(Cc1ccc(C(=O)O)cc1OC)cn2CCC`, 78 to 90 °C.
Molecule `COc1ccc(C2=NN(CCCCCCBr)C(=O)[C@H]3CCCC[C@@H]23)cc1OC` (relative stereo) came in with a melting point of 74 to 75 °C.
On to `O=C1N(c2ccccc2)c2ccccc2C1(Cc1ccccc1)Cc1ccncc1` (stereo unspecified), for which the melting point was 127 to 128 °C.
For `CCOC(=O)CC(=O)c1c(C(=O)OC)n(C)c2cc(Cl)ccc12` the value was 250 to 252 °C.
For `O=c1c2cccnc2c(-c2cccc(Cl)c2)cn1Cc1ccccc1` the value was 149 to 150 °C; for `CCCN(CCC)C(=O)Cn1c(=O)[nH]c2cnc(-c3ccccc3)nc21`, 190 to 191 °C; for `CC1(C)Oc2ccc(C#N)cc2C(NC(=O)C(N)c2ccccc2)C1O` (stereo unspecified), 109 to 111 °C.
As for `O=C(/C=C1/c2ccccc2N(C(=O)c2ccc(NC(=O)c3ccccc3-c3ccccc3)cc2)CCC1(F)F)NCc1ccccc1`, the figure is 189 to 192 °C.
Regarding `CCOc1ccc(-c2nc(-c3cccc(C(=O)O)c3)cs2)cc1OCC`, the melting point lay in the range of 192 to 193 °C.
In the case of `COc1ccccc1N1CCN(C(=O)[C@H](N)Cc2cccnc2)CC1`, the melting point was > 240 °C.
The molecule `CC1COc2c(N3CCNC(c4ccccc4)C3)c(F)cc3c(=O)c(C(=O)O)cn1c23` (stereo unspecified) came in with a melting point of 238 to 244 °C.
As for `Cc1ccc(-c2nc(C)c(-c3ccnc(Nc4ccc(N5CCOCC5)cc4)n3)s2)c(C)c1`, the figure is 191 to 192 °C.
As for `CC(OC(=O)C1N2C(=O)C(NC(=O)Cc3ccccc3)C2S(=O)C1(C)C)C1CC1` (stereo unspecified), the figure is 158 to 159 °C; as for `CCOc1cccc(C(COC)n2nc(C(=O)O)c3c2-c2ccc(OCc4cncnc4)cc2CC3)c1` (stereo unspecified), 208 to 211 °C; as for `CN1CCC(C2c3sccc3CCn3ccnc32)CC1` (stereo unspecified), 121 °C.
For `C=CCN1CCc2cc(OC)c(O)c3c2C1Cc1cc(O)c(OC)cc1-3` (single isomer, unassigned; (+)) the value was 161 to 171 °C.
`CCN(c1ccccc1C)S(=O)(=O)c1cc([N+](=O)[O-])ccc1C` showed a melting point of 78 to 80 °C.
For `COc1ccc2c(c1)CCC1C2CCC2(C)C(=O)CC(C)(C)C12` (stereo unspecified) the value was 145 to 148 °C; for `CNC(=O)[C@@H]1C[C@@H](OC)CN1C(=O)OCc1ccccc1`, 45 to 47 °C.
As for `O=c1c(Br)c(Br)cnn1-c1cccc(C(F)(F)F)c1`, the figure is 158 to 175 °C.
For `C[C@@H]1CN(C(=O)OC(C)(C)C)C[C@H]2Cc3cc(F)c(CO)nc3N21` the value was 91 to 93 °C; for `COc1cc(OC)c(C(=O)CBr)cc1C(=O)O`, 236 °C.
Turning to `O=C1N(Cc2ccc(OCc3ccccc3)cc2)c2ccccc2C12COc1cc3c(cc12)CCO3` (stereo unspecified), the melting point lay in the range of 169 to 170 °C.
Take `COc1ccc2cccc(N3C(=O)CN(Cc4ccccc4)CC3=O)c2c1`: the melting point is 178 °C.
For `O=C1c2ccccc2COc2cc(C=NO)ccc21` the value was 170 to 172 °C.
Molecule `Nc1nc2[nH]c(CCC#Cc3ccsc3C(=O)N[C@@H](CCC(=O)O)C(=O)O)cc2c(=O)[nH]1` gave a melting point of 177 to 178 °C.
As for `CC(C)(C)OC(=O)Nc1ccc(-c2ccccc2F)cc1NC(=O)CC(=O)c1sccc1C#N`, the figure is 63 to 66 °C; as for `CCS(=O)(=O)c1c(Cl)nc(Cl)nc1Cl`, 135 to 136 °C.
In the case of `CCCCc1nc2c(N)nc3cccnc3c2n1CCCCN1CC(C(N)=O)=CC=C1N1CCOCC1`, the melting point is 95 to 100 °C.
For `CC(C)(C)OC(=O)NCCCN1CCC(CCCCNC(N)=NC(=O)c2nc(Cl)c(N)nc2N)CC1` the value was 98 to 102 °C; for `COc1ccc2nn(-c3cc(OCCCO)cc(C(C)(C)C)c3O)nc2c1`, 128 to 130 °C.
As for `COc1cc([N+](=O)[O-])ccc1OCC(=O)C1CC1`, the figure is 112 to 113 °C; as for `O=c1oc(=Cc2ccccc2)c(=Cc2ccccc2)o1`, 115 °C.
For `COc1ccc(C(CC(=O)Nc2ncccc2C)N2C(=O)c3ccccc3C2=O)cc1OC` (stereo unspecified) the value was 171 to 172 °C; for `CCc1[nH]c(=O)[nH]c(=O)c1N1CCN(Cc2ccccc2)CC1`, 255 to 256 °C; for `Cc1cccc(NC(=O)NC2N=C(c3ccccc3F)c3ccccc3N(Cc3ncccc3C(=O)N3CCCC3)C2=O)c1` (racemic), 153 to 155 °C.
For the molecule `Nc1ccc(Cl)cc1C(=O)NCCCn1cncn1`, the melting point is 116 to 118 °C.
In turn, `NC(=O)C1=NN(c2cccc(COc3ccccc3)c2)C(c2ccccc2)N1` (stereo unspecified) registered a melting point of 177 to 178 °C.
For `CC(=O)OCC(OC(C)=O)C(OC(C)=O)C(C=O)OC(C)=O` (stereo unspecified) the value was 161 to 162 °C; for `CCC1CC(=O)N(Cc2ccc(NC(C)=O)cc2)N=C1c1ccc(OC)c(OC2CCCC2)c1` (stereo unspecified), 162 °C.
`O=C1NCC(CN2C(=O)C3(COc4cc5c(cc43)OCO5)c3ccccc32)O1` (stereo unspecified) showed a melting point of 195 to 202 °C.
As for `Cc1ccc(S(=O)(=O)c2c(O)c3ccccc3n(C)c2=O)cc1`, the figure is 191 °C; as for `CSc1ccc(NC(=N)c2ccc(Cl)cc2)cc1`, 148 to 150 °C.
As for `Cc1ccc(-c2cn3c(n2)sc2cc(O)ccc23)cc1`, the figure is 275 to 277 °C; as for `O=C(C=Cc1ccncc1)c1ccc(F)cc1`, 157 °C.
For `Cc1c(CO)ncn1C(c1ccccc1)(c1ccccc1)c1ccccc1` the value was 255 to 260 °C; for `CN1CCC(N(Cc2cccn2C)S(=O)(=O)c2ccc(Nc3nccc(Nc4ccc(F)cc4)n3)cc2)CC1`, 129 °C.
`CCOc1cc(C(CC(C)O)N2C(=O)c3cccc(NC(C)=O)c3C2=O)ccc1OC` (stereo unspecified) displayed a melting point of 132 to 134 °C.
As for `CC(CO)Nc1c(F)cc2c(=O)c(C(=O)O)cn(-c3cc(N)c(F)cc3F)c2c1Cl` (stereo unspecified), the figure is 153 to 158 °C; as for `C=CCn1nc(-c2ccc(OC)cc2)c(-c2ccc(OC)cc2)cc1=O`, 114 to 115 °C.
Turning to `CC(=O)Nc1ccccc1NS(=O)(=O)c1cc(C(=O)O)cc(NCc2ccco2)c1Oc1ccccc1`, the melting point fell in the range of 207 to 210 °C.
For `NC(=O)COc1cccc(NC(=O)c2cc(-c3cccc(F)c3)ccc2F)c1` the value was 203 to 206 °C.
For `CN1CC(CCCl)Oc2cc(Cl)ccc2C1=S` (stereo unspecified) the value was 105 to 106 °C; for `CCC1(CC)C(=O)N(CCO)CC(C)(C)N1OC(C)(C)C#N`, 80 to 82 °C; for `Cn1c(=O)c(=O)[nH]c2cc(Cl)ccc21`, 342 °C.
For `Cc1noc(NC(=O)N2CCN(c3nccc(-c4ccc(F)cc4)n3)CC2)c1C` the value was 226 to 227 °C; for `C=CC[C@@H]1C[C@@H](COc2ccc(CCCCNC(=O)OC(C)(C)C)cc2)N(CCc2ccc3ccccc3c2)C1=O`, 79 to 83 °C.
Molecule `O=[N+]([O-])c1ccc(C=C(Cl)Cl)o1` gave a melting point of 74 to 75 °C.
For `O=C(O)c1ccc(/C=C/C(=O)c2ccc(-c3cccs3)cc2)cc1` the value was 260 to 265 °C.
As for `CCC(C#N)CCn1nc(C(N)=O)c2ccccc21` (stereo unspecified), the figure is 178 to 180 °C; as for `Nc1ccc(Sc2ccc3c(c2)OCC(=O)N3)cc1`, 232 to 234 °C; as for `COc1ccc2c(n1)C1(CO2)C(=O)N(CC2CCCO2)c2cccc(Br)c21` (stereo unspecified), 110 to 112 °C.
For `O=C1c2c(Br)cccc2S(=O)(=O)N1CSc1ccccc1` the value was 174 to 178 °C; for `CCCCN(Cc1c(O)ccc2ccccc12)Cc1c(O)ccc2ccccc12`, 130 to 131 °C.
Consider `COc1ccc(C=Cc2nc3c([nH]2)c(=O)n(C)c(=O)n3C)cc1`, for which the melting point is > 320 °C.
As for `O=C(Cc1ccc(O)c2[nH]ncc12)NCc1ccccc1`, the figure is 188 to 190 °C; as for `CCCCCCCCCCOc1ccc(O)c2ccccc12`, 89 to 90 °C; as for `CCOc1cc2c(cc1OC(C)=O)CCC1C2CCC2(C)C(OC(C)=O)CCC12` (stereo unspecified), 132 to 133 °C.

As usually defined, the melting point is the temperature, or range, at which the solid turns liquid.
